Assay results: patent US9771325B2, “Tricyclic compounds and preparation thereof” (Council of Scientific & Industrial Research, priority 2014, dated 2017)
pIC50: −log10 of the molar value.

Assays:
[1] = tested on: Colorectal adenocarcinoma (SW620) cell line; assay: SRB assay for anticancer activity, SW620; assay type: cell-based, human; settings: for inhibition at 10 µM: Homo sapiens, SW-620, Colon SW620, 48 h, read-out: % Inhibition at 10 μM Solution in Cancer Cell Line
Protocol: (§1) SRB Assay Protocol for Anticancer Activity:
(§2) Addition of cells: The human cancer cell lines Ovary (SK-OV-3), Lung (A549) and Breast (MCF-7) maintained in RPMI-1640 medium; Cervical (HeLa), Head & Neck (FaDu) and Colorectal adenocarcinoma (SW620) are maintained in DMEM medium. The enumerated cells are dispensed in a 96-well tissue culture plate. Each well receives 100 μl of the cell suspension containing 10,000-20,000 cells (depending upon the nature of cell line). The cells are then incubated at 37° C. in 5% CO2 concentration for 24 h before addition of the test samples/standard drugs.
(§3) Addition of test samples: 100 μl of working solution of the test sample is added to the cell monolayer to give a final concentration 10 μM (pure compound) For each sample, duplicate wells are included.
(§4) Positive (Drug) and Negative (Vehicle) Controls: In every assay plate both positive and vehicle controls are included. In positive control well, adriamycin (Doxorubicin) is added at 10 μM concentration. In vehicle control wells, DMSO is added. In all assay wells the final concentration of DMSO is 0.1%. The plates are then incubated at 37° C. in 5% CO2 concentration for 48 h.
(§5) Addition of SRB and Colorimetric reading: After 48 h incubation, cells attached to substratum of the plate are fixed by adding cold 50% trichloroacetic acid (TCA, 50 μl/well) on top of the medium and incubated at 4° C. for 1 h. After that the plate is gently washed 5 times with slow running tap water via plastic tubing to remove TCA, culture medium and dead cells. The water stream should not be injected very fast or directly on to the bottom of the wells as this can cause cell monolayer to detach. After washing, the plates are allowed to dry in air (plates can be stored for long periods at room temperature after fixing and drying step) […], 50 μl/well of SRB solution is added and left at room temperature for 30 min. At the end of the staining period, unbound SRB is removed by quickly rinsing plates 4-5 times with 1% (v/v) acetic acid. Plates are allowed to air-dry at room temperature (Stained and dried plates can be stored indefinitely at room temperature). 150 μl of 10 mM Tris base solution is added to each well and plate is shaken for 15 min on a gyratory shaker to solubilize the protein-bound dye. Alternatively, if a shaker is unavailable, SRB gets solubilized after 30 min in Tris base solution. Absorbance is measured at 510 nm in a microplate spectrophotometer.
(§6) Percentage of cell growth inhibition in presence of the test sample is calculated as follows: […]

[2] = tested on: Breast (MCF-7) cancer cell line; assay: SRB assay for anticancer activity, MCF-7; assay type: cell-based, human; settings: for inhibition at 10 µM: Homo sapiens, MCF7, 48 h, read-out: % Inhibition at 10 μM Solution in Cancer Cell Line
Protocol: as §1, §2, §3, §4, §5, §6

[3] = tested on: Colon COLO205 cancer cell line; assay: SRB assay for anticancer activity, COLO205; assay type: cell-based, human; settings: for inhibition at 10 µM: Homo sapiens, COLO 205, 48 h, read-out: % Inhibition at 10 μM Solution in Cancer Cell Line
[4] = tested on: Head & Neck KB cancer cell line; assay: SRB assay for anticancer activity, KB; assay type: cell-based, human; settings: 48 h; for inhibition at 10 µM: Homo sapiens, read-out: % Inhibition at 10 μM Solution in Cancer Cell Line
[5] = tested on: Cervical (HeLa) cancer cell line; assay: SRB assay for anticancer activity, HeLa; assay type: cell-based, human; settings: 48 h; for inhibition at 10 µM: Homo sapiens, read-out: % Inhibition at 10 μM Solution in Cancer Cell Line
Protocol: as §1, §2, §3, §4, §5, §6

[6] = tested on: Ovary (SK-OV-3) cancer cell line; assay: SRB assay for anticancer activity, SK-OV-3; assay type: cell-based, human; settings: for inhibition at 10 µM: Homo sapiens, SK-OV-3, Ovary SKOV3, 48 h, read-out: % Inhibition at 10 μM Solution in Cancer Cell Line
Protocol: as §1, §2, §3, §4, §5, §6

[7] = tested on: Colon DLD-1 cancer cell line; assay: SRB assay for anticancer activity, DLD-1; assay type: cell-based, human; settings: 48 h; for inhibition at 10 µM: Homo sapiens, read-out: % Inhibition at 10 μM Solution in Cancer Cell Line
[8] = tested on: Lung (A549) cancer cell line; assay: SRB assay for anticancer activity, A549; assay type: cell-based, human; settings: 48 h; for inhibition at 10 µM: Homo sapiens, read-out: % Inhibition at 10 μM Solution in Cancer Cell Line
Protocol: as §1, §2, §3, §4, §5, §6

[9] = tested on: Ovary NIH:OVACR-3 cancer cell line; assay: SRB assay for anticancer activity, NIH:OVACR-3; assay type: cell-based, human; settings: 48 h; for inhibition at 10 µM: Homo sapiens, read-out: % Inhibition at 10 μM Solution in Cancer Cell Line
[10] = tested on: Ovary PA1 cancer cell line; assay: SRB assay for anticancer activity, PA1; assay type: cell-based, human; settings: 48 h; for inhibition at 10 µM: Homo sapiens, read-out: % Inhibition at 10 μM Solution in Cancer Cell Line
[11] = tested on: Head & Neck (FaDu) cancer cell line; assay: SRB assay for anticancer activity, FaDu; assay type: cell-based, human; settings: 48 h; for inhibition at 10 µM: Homo sapiens, read-out: % Inhibition at 10 μM Solution in Cancer Cell Line
Protocol: as §1, §2, §3, §4, §5, §6

[12] = tested on: Breast MDA-MB-231 cancer cell line; assay: SRB assay for anticancer activity, MDA-MB-231; assay type: cell-based, human; settings: 48 h; for inhibition at 10 µM: Homo sapiens, read-out: % Inhibition at 10 μM Solution in Cancer Cell Line
[13] = tested on: Lung NCI-H446 cancer cell line; assay: SRB assay for anticancer activity, NCI-H446; assay type: cell-based, human; settings: 48 h; for inhibition at 10 µM: Homo sapiens, read-out: % Inhibition at 10 μM Solution in Cancer Cell Line
[14] = tested on: Lung NCI-H358 cancer cell line; assay: SRB assay for anticancer activity, NCI-H358; assay type: cell-based, human; settings: 48 h; for inhibition at 10 µM: Homo sapiens, read-out: % Inhibition at 10 μM Solution in Cancer Cell Line
[15] = tested on: cervical C-33A cancer cell line; assay: SRB assay for anticancer activity, C-33A; assay type: cell-based, human; settings: 48 h; for inhibition at 10 µM: Homo sapiens, read-out: % Inhibition at 10 μM Solution in Cancer Cell Line
KB cells = settings: Chinese Chemical Letters 2013, 24, 57-58, read-out: cytotoxicity against KB cells in vitro, IC50; cited from earlier work

Compound | inhibition at 10 µM [1] [%] | inhibition at 10 µM [2] [%] | inhibition at 10 µM [3] [%] | inhibition at 10 µM [4] [%] | inhibition at 10 µM [5] [%] | inhibition at 10 µM [6] [%] | inhibition at 10 µM [7] [%] | inhibition at 10 µM [8] [%] | inhibition at 10 µM [9] [%] | inhibition at 10 µM [10] [%] | inhibition at 10 µM [11] [%] | inhibition at 10 µM [12] [%] | inhibition at 10 µM [13] [%] | inhibition at 10 µM [14] [%] | inhibition at 10 µM [15] [%] | further results
8-Hydroxy-4,7,7-trimethyl-7,8-dihydrocyclopenta[e]isoindole-1,3(2H,6H)-dione [Compound 8] |  |  |  |  |  |  |  |  |  |  |  |  |  |  |  | % Inhibition at 10 μM Solution in Cancer Cell Line ([1]; Colon SW620, 48 h): −11.48%; % Inhibition at 10 μM Solution in Cancer Cell Line ([2]; 48 h): 4.31%; % Inhibition at 10 μM Solution in Cancer Cell Line ([3]; 48 h): 0.00%; % Inhibition at 10 μM Solution in Cancer Cell Line [4]: 0.00%; % Inhibition at 10 μM Solution in Cancer Cell Line [5]: 29.05%; % Inhibition at 10 μM Solution in Cancer Cell Line ([6]; Ovary SKOV3, 48 h): 5.55%; % Inhibition at 10 μM Solution in Cancer Cell Line [7]: 0.00%; % Inhibition at 10 μM Solution in Cancer Cell Line [8]: 6.05%; % Inhibition at 10 μM Solution in Cancer Cell Line [9]: 0.00%; % Inhibition at 10 μM Solution in Cancer Cell Line [10]: 0.00%; % Inhibition at 10 μM Solution in Cancer Cell Line [11]: 2.10%; % Inhibition at 10 μM Solution in Cancer Cell Line [12]: 0.00%; % Inhibition at 10 μM Solution in Cancer Cell Line [13]: 0.00%; % Inhibition at 10 μM Solution in Cancer Cell Line [14]: 0.00%; % Inhibition at 10 μM Solution in Cancer Cell Line [15]: 0.00%
Cc1cc2c(c3c1C(=O)NC3=O)C(O)C(C)(C)C2 (stereo not shown) [Compound 1] |  |  |  |  |  |  |  |  |  |  |  |  |  |  |  | pIC50 (KB cells): 4.78
CCOC(=O)C1(C(=O)OCC)Cc2ccc3c(c2C1)C(=O)NC3=O [Compound 18, Diethyl 1,3-dioxo-2,3,6,8-tetrahydrocyclopenta[e]isoindole-7,7(1H)-dicarboxylate] | 13.2 | 6.84 | 0 | 0 | 20.9 | -1.46 | 0 | 28.8 | 0 | 0 | -0.05 | 0 | 0 | 0 | 0 | 
CCOC(=O)C1(C(=O)OCC)Cc2ccc3c(c2C1)C(=O)N(CCO)C3=O [Compound 19, Diethyl 2-(2-hydroxyethyl)-1,3-dioxo-2,3,6,8-tetrahydrocyclopenta[e]isoindole-7,7(1H)-dicarboxylate] | 15.2 | 3.44 | 0 | 0 | 25.7 | -3.91 | 0 | 29 | 0 | 0 | 0.16 | 0 | 0 | 0 | 0 | 
CCOC(=O)C1(C(=O)OCC)Cc2cc(C)c3c(c2C1)C(=O)NC3=O [Compound 22, Diethyl 4-methyl-1,3-dioxo-2,3,6,8-tetrahydrocyclopenta[e]isoindole-7,7(1H)-dicarboxylate] | 15.4 | 10.4 | 0 | 0 | 34.3 | -9.36 | 0 | 27 | 0 | 0 | 10.3 | 0 | 0 | 0 | 0 | 
CCOC(=O)C1(C(=O)OCC)Cc2cc(C)c3c(c2C1)C(=O)N(CCO)C3=O [Compound 23, Diethyl 2-(2-hydroxyethyl)-4-methyl-1,3-dioxo-2,3,6,8-tetrahydrocyclopenta[e]isoindole-7,7(1H)-dicarboxylate] | 13.3 | 8.24 | 0 | 0 | 31 | -7.23 | 0 | 19.2 | 0 | 0 | 11 | 0 | 0 | 0 | 0 | 
CCOC(=O)C1(C(=O)OCC)Cc2cc(C)c3c(c2C1)C(=O)N(S(=O)(=O)c1ccc(F)cc1)C3=O [Compound 24, Diethyl 2-((4-fluorophenyl)sulfonyl)-4-methyl-1,3-dioxo-2,3,6,8-tetrahydrocyclopenta[e]isoindole-7,7(1H)-dicarboxylate] | 50.5 | 34.9 | 0 | 0 | 65.2 | 21.2 | 0 | 48.2 | 0 | 0 | 59.4 | 0 | 0 | 0 | 0 | 
COc1cccc2c1C(=O)c1c(O)c3c(c(O)c1C2=O)C[C@@](O)(C(=O)CO)C[C@@H]3O[C@H]1C[C@H](N)[C@H](O)[C@H](C)O1 [Doxorubicin, reference compound] | 80.3 | 66.7 | 0 | 0 | 89.5 | 58 | 0 | 69.1 | 0 | 0 | 89.6 | 0 | 0 | 0 | 0 | 
